Measured values: US20230192617A1, “AZABICYCLIC(THIO)AMIDES AS FUNGICIDAL COMPOUNDS” (Bayer CropScience Aktiengesellschaft, priority 2020, published 2023)

Tested on: Colletotrichum lindemuthianum
Assay: B-8. Colletotrichum lindemuthianum in vitro cell test
Assay type: cell-based
Settings: 144 h, 20 ppm of active ingredient, 6 days incubation, liquid culture, absorbance, read-out: efficacy (inhibition of fungal growth)
Protocol: B-8. Colletotrichum lindemuthianum In Vitro Cell Test [table] Fungicides were solubilized in DMSO and the solution used to prepare the required range of concentrations. The final concentration of DMSO used in the assay was ≤1%. A spore suspension of C. lindemuthianum was prepared and diluted to the desired spore density. Fungicides were evaluated for their ability to inhibit spores germination and mycelium growth in liquid culture assay. The compounds were added in the desired concentration to the culture medium with spores. After 6 days incubation, fungi-toxicity of compounds was determined by spectrometric measurement of mycelium growth. Inhibition of fungal growth was determined by comparing the absorbance values in wells containing the fungicides with the absorbance in control wells without fungicides.
In the case of N#Cc1cccc(Oc2nnc3ccccc3c2C(=O)NCC(F)(F)c2ccc(Cl)cn2)c1 [I-248], the inhibition at 20 ppm is reported as 70 to 79%.
In the case of O=C(NCC(F)(F)c1ccc(Cl)cn1)c1c(Oc2cccc(C(F)(F)F)c2)cnc2ccccc12 [I-038], the inhibition at 20 ppm is reported as 70 to 79%.

Tested on: not listed separately
Assay: Measurement of Log P values by HPLC on reversed phase columns (EEC directive 79/831 Annex V.A8)
Assay type: physicochemical
Settings: method [a]: LC-UV, acidic range, 0.1% formic acid in water and acetonitrile as eluent
Protocol: A-1.1. Measurement of Log P Values
Measurement of Log P values as provided herein was performed according to EEC directive 79/831 Annex V.A8 by HPLC (High Performance Liquid Chromatography) on reversed phase columns with the following methods:
^[a] Log P value is determined by measurement of LC-UV, in an acidic range, with 0.1% formic acid in water and acetonitrile as eluent (linear gradient from 10% acetonitrile to 95% acetonitrile).
^[b] Log P value is determined by measurement of LC-UV, in a neutral range, with 0.001 molar ammonium acetate solution in water and acetonitrile as eluent (linear gradient from 10% acetonitrile to 95% acetonitrile).
^[c] Log P value is determined by measurement of LC-UV, in an acidic range, with 0.1% phosphoric acid and acetonitrile as eluent (linear gradient from 10% acetonitrile to 95% acetonitrile).
If more than one Log P value is available within the same method, all the values are given and separated by “+”. […]
Compound O=C(O)c1c(Oc2cccc(Cl)c2F)nnc2c1CCCC2 [1-29, 3-(3-chloro-2-fluoro-phenoxy)-5,6,7,8-tetrahydrocinnoline-4-carboxylic acid] has a chromatographic logP of 1.46.
Compound O=C(O)c1c(Oc2cccc(C(F)(F)F)c2)cnc2ccccc12 [1-07, 3-(3-(trifluoromethyl)phenoxy)quinoline-4-carboxylic acid] has a chromatographic logP of 2.57.
Compound O=C(O)c1c(Oc2cccc(C3CC3)c2F)cnc2ccccc12 [1-51] has a chromatographic logP of 2.71.
For O=C(O)c1c(Oc2cccc(C(F)(F)F)c2)cnc2ccoc12 [1-15, 6-[3-(trifluoromethyl)phenoxy]furo[3,2-b]pyridine-7-carboxylic acid], the chromatographic logP was 2.08.
With C=Cc1cccc(Oc2cnc3ccccc3c2C(=O)O)c1 [1-50] the chromatographic logP was 2.41.
With O=C(O)c1c(Oc2cccc(C(F)(F)F)c2)nnc2c1CCCC2 [1-31] the chromatographic logP was 1.6.
CCOC(=O)c1c(Oc2cccc(Br)c2F)nnc2c1CCCC2 [1-21] showed a chromatographic logP of 3.85.
Compound CCOC(=O)c1c(Oc2cccc(C(F)(F)F)c2)nnc2c1CCCC2 [1-22] has a chromatographic logP of 3.9.
Work on O=C(O)c1c(Oc2cccc(C3CC3)c2F)nnc2ccccc12 [1-18, 3-(3-cyclopropyl-2-fluoro-phenoxy)cinnoline-4-carboxylic acid] yielded a chromatographic logP of 2.23.
For O=C(O)c1c(Oc2cccc(C(F)(F)F)c2)nnc2ccccc12 [1-01], the chromatographic logP was 2.27.
Compound COC(=O)c1c(Oc2cccc(C(F)(F)F)c2)cnc2ccccc12 [1-13, methyl 3-(3-(trifluoromethyl)phenoxy)quinoline-4-carboxylate] has a chromatographic logP of 3.8.
O=C(O)c1c(Oc2cccc(C(F)F)c2)nnc2ccccc12 [1-11] gave a chromatographic logP of 1.87.
Work on O=C(O)c1c(Oc2cccc(C(F)F)c2)cnc2ccccc12 [1-41] yielded a chromatographic logP of 2.1.
Work on Cc1cccc(Oc2nnc3ccccc3c2C(=O)O)c1 [1-04] yielded a chromatographic logP of 1.92.
Compound CCOC(=O)c1c(Oc2cccc(C(F)F)c2)nnc2c1CCCC2 [1-23] has a chromatographic logP of 3.37.
In the case of C#Cc1cccc(Oc2cnc3ccccc3c2C(=O)O)c1 [1-49], the chromatographic logP is reported as 2.2.
In the case of O=C(O)c1c(Oc2cccc(C(F)F)c2)nnc2c1CCCC2 [1-32], the chromatographic logP is reported as 1.18.
Work on CC(C)OC(=O)c1c(Oc2cccc(Cl)c2)nnc2ccccc12 [1-14] yielded a chromatographic logP of 4.19.
Work on COC(=O)c1c(Oc2cccc(C(F)F)c2)nnc2ccccc12 [1-09] yielded a chromatographic logP of 3.06.
For O=C(O)c1c(Oc2cccc(Br)c2F)nnc2c1CCCC2 [1-27], the chromatographic logP was 1.55.
With O=C(O)c1c(Oc2cccc(Br)c2F)cnc2ccccc12 [1-39] the chromatographic logP was 2.59.
For COC(=O)c1c(Oc2cccc(C(F)(F)F)c2)nnc2ccccc12 [1-02], the chromatographic logP was 3.62.
With O=C(O)c1c(Oc2cccc(Cl)c2)nnc2ccccc12 [1-03] the chromatographic logP was 2.07.
For CCOC(=O)c1c(Oc2cccc(Cl)c2F)nnc2c1CCCC2 [1-26, ethyl 3-(3-chloro-2-fluoro-phenoxy)-5,6,7,8-tetrahydrocinnoline-4-carboxylate], the chromatographic logP was 3.76.

Same assay, conditions: method [b]: LC-UV, neutral range, 0.001 molar ammonium acetate solution in water and acetonitrile as eluent
With O=C(O)c1c(Oc2cccc(Cl)c2F)nnc2c1CCCC2 [1-29, 3-(3-chloro-2-fluoro-phenoxy)-5,6,7,8-tetrahydrocinnoline-4-carboxylic acid] the chromatographic logP was 0.42.
With O=C(O)c1c(Oc2cccc(C(F)(F)F)c2)nnc2c1CCCC2 [1-31] the chromatographic logP was 0.55.
Compound CCOC(=O)c1c(Oc2cccc(C(F)F)c2)nnc2c1CCCC2 [1-23] has a chromatographic logP of 3.19.
In the case of O=C(O)c1c(Oc2cccc(Br)c2F)nnc2c1CCCC2 [1-27], the chromatographic logP is reported as 0.45.
In the case of CCOC(=O)c1c(Oc2cccc(Cl)c2F)nnc2c1CCCC2 [1-26, ethyl 3-(3-chloro-2-fluoro-phenoxy)-5,6,7,8-tetrahydrocinnoline-4-carboxylate], the chromatographic logP is reported as 3.56.

Same assay, conditions: reversed phase HPLC column, method [a]: LC-UV, acidic range, 0.1% formic acid in water and acetonitrile as eluent
In the case of COC(=O)c1c(Oc2cccc(C(F)(F)F)c2)nnc2ccsc12 [1-55], the chromatographic logP is reported as 3.34.
With CCOC(=O)c1c(Oc2cccc(Br)c2F)nnc2ccccc12 [1-37] the chromatographic logP was 4.02.
Compound Cc1ccc(C(F)(F)CNC(=O)c2c(Cl)nnc3ccccc23)c(C)c1 [3-02] has a chromatographic logP of 3.23.
With O=C(O)c1c(Oc2cccc(C3CC3)c2)cnc2ccccc12 [1-45] the chromatographic logP was 2.59.
With O=C(N/C=C/c1ccccc1)c1c(Oc2cccc(C(F)(F)F)c2)cnc2ccccc12 [I-217] the chromatographic logP was 3.92.
O=C(O)c1c(Oc2cccc(Cl)c2)nnc2c1CCCC2 [1-28] gave a chromatographic logP of 1.28.
Compound O=C(O)c1c(Oc2cccc(C(F)(F)F)c2)nnc2cc(C3CC3)ccc12 [1-34] has a chromatographic logP of 3.21.
For O=C(O)c1c(Oc2cccc(Br)c2F)nnc2ccccc12 [1-35], the chromatographic logP was 2.43.
Work on Cc1ccc(C(F)(F)CNC(=O)c2c(Br)cnc3nccnc23)c(C)c1 [3-01] yielded a chromatographic logP of 2.56.
CON(CCc1ccc(Cl)cc1Cl)C(=O)c1c(Oc2cccc(C(F)(F)F)c2)nnc2ccccc12 [I-190] gave a chromatographic logP of 5.03.
CCOC(=O)c1c(Oc2cccc(C(F)(F)F)c2)nnc2cc(F)ccc12 [1-58] showed a chromatographic logP of 4.16.
Compound Cc1ccc(C(F)(F)CNC(=O)c2c(Oc3ccc(Cl)cc3)nnc3ccccc23)c(C)c1 [I-200] has a chromatographic logP of 4.23.
O=C(O)c1c(Oc2cccc(Br)c2)nnc2ccccc12 [1-48] showed a chromatographic logP of 2.2.
For CC1(C)COc2nnc(Oc3cccc(C(F)(F)F)c3)c(C(=O)O)c2OC1 [1-20], the chromatographic logP was 2.02.
In the case of O=C(O)c1c(Oc2cncc(C(F)(F)F)c2)nnc2ccccc12 [1-06], the chromatographic logP is reported as 1.83.
For CCOC(=O)c1c(Oc2cccc(Cl)c2F)nnc2c1CCC2 [1-40], the chromatographic logP was 3.37.
Work on N#Cc1cccc(Oc2nnc3ccccc3c2C(=O)NCC(F)(F)c2ccc(Cl)cn2)c1 [I-248] yielded a chromatographic logP of 2.84.
Work on CCOC(=O)c1c(Oc2cccc(C(F)(F)F)c2)nnc2cnccc12 [1-54] yielded a chromatographic logP of 3.51.
Work on O=C(O)c1c(Oc2cccc(C(F)(F)F)c2)nnc2cc(F)ccc12 [1-38] yielded a chromatographic logP of 2.62.
Work on C[C@H](NC(=O)c1c(Oc2ccc(Cl)cc2)nnc2ccccc12)c1cccc(C(F)(F)F)c1 (racemic) [I-204] yielded a chromatographic logP of 3.92.
CC1(C)CCc2c1nnc(Oc1cccc(C(F)(F)F)c1)c2C(=O)O [1-46] gave a chromatographic logP of 2.49.
With O=C(O)c1c(Oc2ccc(Cl)cc2)nnc2ccccc12 [1-16] the chromatographic logP was 2.12.
Work on CCOC(=O)c1c(Oc2cccc(C(F)(F)F)c2)nnc2cc(C)ccc12 [1-52] yielded a chromatographic logP of 4.38.
For CCOC(=O)c1c(Oc2cccc(Cl)c2)nnc2c1CCCC2 [1-24], the chromatographic logP was 3.72.
For CCOC(=O)c1c(Oc2cccc(C(F)(F)F)c2)nnc2c1CCC2(C)C [1-44], the chromatographic logP was 4.4.
O=C(O)c1c(Oc2cccc(C3CC3)c2)nnc2ccccc12 [1-36] showed a chromatographic logP of 2.36.
For Cc1ccc2c(C(=O)O)c(Oc3cccc(C(F)(F)F)c3)nnc2c1 [1-12, 7-methyl-3-(3-(trifluoromethyl)phenoxy)cinnoline-4-carboxylic acid], the chromatographic logP was 2.74.
COC(=O)c1c(Oc2cccc(C#N)c2)nnc2ccccc12 [1-08] gave a chromatographic logP of 2.64.
Work on O=C(O)c1c(Oc2cccc(C(F)(F)F)c2)nnc2c1OCCO2 [1-17, 3-[3-(trifluoromethyl)phenoxy]-6,7-dihydro-[1,4]dioxino[2,3-c]pyridazine-4-carboxylic acid] yielded a chromatographic logP of 1.31.
Work on O=C(O)c1c(Oc2cccc(C(F)(F)F)c2)nnc2ccsc12 [1-57] yielded a chromatographic logP of 2.39.
Cc1cccc(Oc2cnc3ccccc3c2C(=O)O)c1 [1-43] gave a chromatographic logP of 2.18.
In the case of O=C(NCC(F)(F)c1ccc(Cl)cn1)c1c(Oc2cccc(C(F)(F)F)c2)cnc2ccccc12 [I-038], the chromatographic logP is reported as 3.74.
Work on O=C(O)c1c(Oc2cccc(C(F)(F)F)c2)nnc2cnccc12 [1-05] yielded a chromatographic logP of 2.04.
In the case of CCOC(=O)c1c(Oc2cccc(C(F)(F)F)c2)nnc2cc(C3CC3)ccc12 [1-53], the chromatographic logP is reported as 4.81.
With O=C(O)c1c(Oc2cccc(Cl)c2F)nnc2c1CCC2 [1-56] the chromatographic logP was 1.53.
CC1(C)COc2c(nnc(Oc3cccc(C(F)(F)F)c3)c2C(=O)O)O1 [1-19] gave a chromatographic logP of 1.82.
Work on O=C(O)c1c(Oc2cccc(Br)c2)cnc2ccccc12 [1-47] yielded a chromatographic logP of 2.48.
In the case of CCON(Cc1ccccc1)C(=O)c1c(Oc2cccc(C(F)(F)F)c2)nnc2ccccc12 [I-247], the chromatographic logP is reported as 4.24.
CCOC(=O)c1c(Oc2cccc(C3CC3)c2F)nnc2c1CCCC2 [1-25] gave a chromatographic logP of 3.79.
O=C(O)c1c(Oc2cccc(C(F)(F)F)c2)nnc2c1COCC2 [1-33] gave a chromatographic logP of 1.38.
In the case of CCOC(=O)c1c(Oc2cccc(C(F)(F)F)c2)nnc2ccccc12 [1-42], the chromatographic logP is reported as 3.95.
O=C(O)c1c(Oc2cccc(C3CC3)c2F)nnc2c1CCCC2 [1-30] showed a chromatographic logP of 1.72.
Compound N#Cc1cccc(Oc2nnc3ccccc3c2C(=O)O)c1 [1-10] has a chromatographic logP of 1.56.

Same assay, conditions: reversed phase HPLC column, method [b]: LC-UV, neutral range, 0.001 molar ammonium acetate solution in water and acetonitrile as eluent
For N#Cc1cccc(Oc2nnc3ccccc3c2C(=O)NCC(F)(F)c2ccc(Cl)cn2)c1 [I-248], the chromatographic logP was 2.94.
For O=C(O)c1c(Oc2cccc(C3CC3)c2F)nnc2c1CCCC2 [1-30], the chromatographic logP was 0.6.
